Test results published in US20150038418A1, “NATRIURETIC PEPTIDE COMPOSITIONS AND METHODS OF PREPARATION” (MEDTRONIC, INC., priority 2011, published 2015).

Tested on: Prostaglandin E2 (PGE2)
Assay: Serum Prostaglandin E2 after 6 weeks subcutaneous infusion of VD in Dahl/SS rats
Format: in vivo, rat
Conditions: 4% salt diet
Source text: The pharmacodynamic effects of VD were investigated in a rat model. Forty male Dahl/SS rats were shipped to the animal facilities at PhysioGenix, Inc. (Milwaukee, Wis.). The rats were maintained on a low-salt diet and allowed to acclimate. After acclimation, animals had baseline parameters collected while on the low-salt diet. Animals were then randomly assigned to one of 4 groups (10 animals per group):
1. Vehicle Control; low-salt diet, n=10 2. Vehicle Control; 4% salt diet, n=10 3. Vessel dilator, 100 ng/kg/min infusion of VD, 4% salt diet, n=10 4. Vessel dilator, 300 ng/kg/min infusion of VD, 4% salt diet, n=10
Lyophilized VD peptide (Bachem) was reconstituted in a Tris buffer having the same composition as the Tris buffer of Example 1. The vehicle control groups were infused with a citrate-mannitol-saline buffer (0.66 mg/mL citric acid, 6.43 mg/mL sodium citrate, 40 mg/mL mannitol, 9 mg/mL NaCl). The animals were on a Teklad 7034 (low-salt) diet or Dyets AIN-76A 4% salt diet, as indicated, throughout a 6 week course of the study and had free access to water. […]
Alzet® minipumps (Durect, Corp.) were surgically implanted on Days 1, 15, and 29 of the study to maintain continuous vehicle or drug dispensing at the desired dose for a total period of 6 weeks. At the end of 6 weeks, the serum content of Prostaglandin E2 (PGE2) was measured.

Substance: VD: Vessel Dilator, ANP prohormone a.a. 31-67, EVVPPQVLSEPNEEAGAALSPLPEVPPWTGEVSPAQR (SEQ ID No. 4) (listed as Homo sapiens)
- PGE2 concentration in serum versus control groups (SQ infusion 100 ng/kg·min): similar
- PGE2 concentration in serum versus control groups (SQ infusion 300 ng/kg·min, p<0.05): significantly higher than for any of the other 3 groups
